≈ marks a conversion by molar mass, not a printed value.

One assay deals with KB. The assay can be described thus: Cytotoxicity against human KB cells. The format is functional, cell-based.
Assay [1] is described as follows: Inhibition of p-gp in multidrug-resistant human KB cells assessed as increase in vincristine-mediated cytotoxicity. The format is cell-based.

Turning to `CC[C@@]12CCCN3CC[C@H]4c5ccccc5N(C(=O)CC1)C432` (some centres undefined), in the assay with KB, inhibition was half-maximal at 12 µg/mL (≈ 40.5 µM) (IC50). Take `CC[C@@]12CCC(=O)Nc3ccccc3-c3ccn(c31)C(=O)C2` [NOR-RHAZINICINE]: the IC50 (in general, the concentration needed to halve the response being measured) with KB stood at 12 µg/mL (≈ 40.8 µM). `CC[C@@]12CCCN3C(=O)C[C@@]4(O)c5ccccc5N(C(=O)CC1)C324` (some centres undefined) gave an IC50 with KB of 12 µg/mL (≈ 36.8 µM). For the molecule `CC[C@@]12CCCN3CC[C@@]4(O)c5ccccc5N(C(=O)CC1)C324` (some centres undefined), in assay [1], the IC50 worked out at 9.34 µg/mL (≈ 29.9 µM).

The values above are taken from ChEMBL document CHEMBL2375234, “Rhazinilam-Leuconolam-Leuconoxine Alkaloids from Leuconotis griffithii” (J Nat Prod, 2013).
